Earlier results as cited in US8273874B2, “Method of dynamic nuclear polarisation (DNP) and compounds and compositions for use in the method” (GE Healthcare AS, priority 2006, dated 2012).

Conditions: human full blood at 37° C.

T1 relaxation: about 42 s
Compound: CC(=O)[13C](=O)O [^13C1-pyruvate]
